# Like-named read-outs stand apart in the source and are kept apart here.
# Legend:
# [1] = Cytotoxicity run with the Adenovirus test
# [2] = Cytotoxicity run with the HSV-1 test
# [3] = test system: Respiratory Syncitial Virus (RSV); assay: Antiviral activity against RSV (CPE inhibition / neutral red); assay type: cell-based
# Rhinovirus (RV) = assay: Antiviral activity against Rhinovirus (CPE inhibition / neutral red); assay type: cell-based; settings: for IC50: Enterovirus, read-out: RV IC50
# Influenza A = assay: microbe, parasite or virus in culture; assay type: cell-based; settings: for IC50: Influenza A virus, read-out: INFLUENZA A IC50
# [4] = Cytotoxicity run with the RSV test
# HSV-1 = assay: Antiviral activity against HSV-1 (CPE inhibition / neutral red); assay type: cell-based, herpes simplex virus type 1
# [5] = Cytotoxicity run with the Influenza B test; assay type: cell-based
# Method: (§1) Methods For Assay Of Cytotoxicity
# (§2) In the CPE inhibition test, two wells of uninfected cells treated with each concentration of test Compound are run in parallel with the infected, treated wells. At the time CPE is determined microscopically, the toxicity control cells are also examined microscopically for any changes in cell appearance compared to normal control cells run in the same plate. These changes may be enlargement, granularity, cells with ragged edges, a filmy appearance, rounding, detachment from the surface of the well, or other changes. These changes are given a designation of T (100% toxic), PVH (partially toxic-very heavy-80%), PH (partially toxic-heavy-60%), P (partially toxic-40%), PS (partially toxic-slight-20%), or 0 (no toxicity-0%), conforming to the degree of cytotoxicity seen.
# (§3) In the neutral red dye uptake phase of the antiviral test described above, the two toxicity control wells also receive neutral red and the degree of color intensity is determined spectrophotometrically. A neutral red CC50 (NRCC50) is subsequently determined.
# (§4) C. ^3H Thymidine Uptake Assay
# (§5) Flat bottom 96 well plates are plated with 5X10E3 Vero-34 cells/well and 1X10E4 Hs68 or Wi-38 cells/well respectively and incubated overnight at 37° C. and 5% CO2/air. After incubation, the supernatant medium is removed and replaced with test Compound dilutions in 2% DMEM (150 ul). The cells are then incubated 48 hours in a 5% CO2 incubator at 37° C.
# (§6) 50 μl/well of 10 uCi/ml solution of [3H]-methyl thymidine (specific activity of approx. 2Ci/mmol) is added to the culture medium and incubated overnight (18 hours) in a 5% CO2 incubator at 37° C.
# (§7) Cells are then collected onto a fiberglass filter (Printed Filtermat A 1450-421 Wallac) with a Tomtec cell harvester. Suspended cells are collected directly onto filter while for adherent cells, the medium is first removed, then the cells washed with PBS and trypsinized for 2-3 minutes (50 μl trypsin/well) before collecting.
# (§8) Filters are dried for 1 hour at 37-40° C. and then placed into bags (1450-microbeta #1450-432 Wallac) with 4.5 ml of Betascint and counts obtained with Microbeta 1450 Wallac (protocol 1).
# (§9) The percent of cell proliferation is determined by comparison to the control (no test Compound) and thereby establishing 50% inhibitory concentration is established.
# [6] = Cytotoxicity run with the Rhinovirus test
# [7] = Cytotoxicity run with the Influenza A test; assay type: cell-based
# Method: as §1, §2, §3, §4, §5, §6, §7, §8, §9
# [8] = Cytotoxicity run with the Parainfluenza test
# [9] = Cytotoxicity in PBMCs (anti-HIV tests); assay type: cell-based; settings: human; PBMCs, HIVROJO
# HIVTEKI = assay: Anti-HIV activity against HIVTEKI in PBMCs; settings: for IC50: Human immunodeficiency virus 1, PBMC, read-out: HIVTEKI (PBMCs) IC50
# Adenovirus = assay: Antiviral activity against Adenovirus (CPE inhibition / neutral red); assay type: cell-based
# Influenza B = assay: microbe, parasite or virus in culture; assay type: cell-based; settings: for IC50: Influenza B virus
# Parainfluenza = assay: Antiviral activity against Parainfluenza (CPE inhibition / neutral red); assay type: cell-based
# HIVROJO = assay: Anti-HIV activity against HIVROJO in PBMCs; assay type: cell-based; settings: for IC50: Human immunodeficiency virus 1, PBMC, read-out: HIVROJO (PBMCs) IC50
# uninfected cells [10] = assay: Cytotoxicity run with the Adenovirus test; settings: cytotoxicity, Adenovirus test
# uninfected cells [11] = test system: uninfected cells
# uninfected cells [12] = test system: uninfected cells; remark: listed apart in the source
# uninfected cells [13] = assay: Cytotoxicity run with the Influenza B test; assay type: cell-based
# Method: as §1, §2, §3, §4, §5, §6, §7, §8, §9
# uninfected cells [14] = assay: Cytotoxicity run with the Influenza A test; assay type: cell-based
# Method: as §1, §2, §3, §4, §5, §6, §7, §8, §9
# HSV-2 = assay: Antiviral activity against HSV-2 (CPE inhibition / neutral red); assay type: cell-based, herpes simplex virus type 2
# uninfected cells [15] = test system: uninfected cells; remark: listed apart in the source
# uninfected cells [16] = test system: uninfected cells; remark: listed apart in the source
# uninfected cells [17] = assay: Cytotoxicity run with the Parainfluenza test; settings: cytotoxicity, Parainfluenza test
# PBMCs = assay: Cytotoxicity in PBMCs (anti-HIV tests); assay type: cell-based; settings: for HIVTEKI (PBMCs) CC50: HIVTEKI columns
# [18] = Cytotoxicity run with the HSV-2 test
# uninfected cells [19] = test system: uninfected cells; remark: listed apart in the source
# [20] = human respiratory syncytial virus; read-out: RSV IC50
# [21] = Human alphaherpesvirus 1; read-out: HSV-1 IC50
# [22] = unidentified adenovirus; read-out: ADENOVIRUS IC50
SMILES,CC50 [1] [µg/mL],IC50 (Influenza A) [µg/mL],CC50 [4] [µg/mL],CC50 [5] [µg/mL],CC50 [6] [µg/mL],CC50 [7] [µg/mL],CC50 [8] [µg/mL],CC50 [9] [µg/mL],IC50 (HIVTEKI) [µg/mL],IC50 (Influenza B) [µg/mL],IC50 (Parainfluenza) [µg/mL],RSV IC50 ([3]; RSV) [µg/mL],RV IC50 (Rhinovirus (RV); Rhinovirus) [µg/mL],INFLUENZA A IC50 (Influenza A) [µg/mL],HSV-1 IC50 (HSV-1; HSV-1) [µg/mL],RSV CC50 (uninfected cells [12]) [µg/mL],INFLUENZA A CC50 (uninfected cells [14]) [µg/mL],RV CC50 (uninfected cells [15]) [µg/mL],HSV-1 CC50 (uninfected cells [16]) [µg/mL],HIVROJO (PBMCs) CC50 (PBMCs) [µg/mL],also measured
"COc1ccccc1CNC(=O)c1nc2ccncc2s1 [#59, Thiazolo[5,4-c]pyridine-2-carboxylic acid-2-methoxybenzylamide]",,,,,,,,,,,,,,,,,,,,,HCMV IC50 (HCMV): ˜10 μg/ml
"Cc1cncc2ccc(C(=O)NCc3ccccc3OC(C)C)nc12 [#64, 8-(methyl)-[1,6]Naphthyridine-2-carboxylic acid 2-isopropoxybenzylamine]",1,2.4,0.6,1.8,16,2.4,1,4.3,0.8,1.8,1,,,,,,,,,,"CC50 [2]: 3.5 µg/mL; IC50 [3, 20]: 0.6 µg/mL; IC50 (Rhinovirus (RV); Rhinovirus): > 0.08 µg/mL; IC50 (HSV-1; [21]): 2 µg/mL; IC50 (Adenovirus; [22]): 3 µg/mL; IC50 (HIVROJO; HIVROJO, PBMCs): 0.28 µg/mL"
O=C(NCCc1c[nH]c2ccccc12)C1=Cc2ccncc2CC1 [#68],,,,,,,,,,,,60,2,2.1,0.72,20,2.1,10,12,7.1,"ADENOVIRUS CC50 (uninfected cells [10]): 30 µg/mL; HSV-2 CC50 (uninfected cells [11]): 14 µg/mL; INFLUENZA B CC50 (uninfected cells [13]): 11 µg/mL; HSV-2 IC50 (HSV-2): 0.96 µg/mL; PARAINFLUENZA CC50 (uninfected cells [17]): 25 µg/mL; ADENOVIRUS IC50 (Adenovirus; Adenovirus): 20 µg/mL; INFLUENZA B IC50 (Influenza B): 7.2 µg/mL; PARAINFLUENZA IC50 (Parainfluenza): 50 µg/mL; HIVROJO (PBMCs) IC50 (HIVROJO; HIVROJO, PBMCs): 2.9 µg/mL"
"C=Cc1cncc2ccc(C(=O)NCc3ccccc3OC(C)C)nc12 [#63, 8-(vinyl)-[1,6]Naphthyridine-2-carboxylic acid 2-isopropoxybenzylamine]",7,5.6,5,2.4,9,5.6,8,7,4.9,5.2,10,,,,,,,,,,"IC50 [3, 20]: 12 µg/mL; IC50 (Rhinovirus (RV); Rhinovirus): 2 µg/mL; IC50 (Adenovirus; [22]): 9 µg/mL; IC50 (HIVROJO; HIVROJO, PBMCs): 0.7 µg/mL"
"C[C@H](NC(=O)c1nc2ccncc2s1)c1ccccc1 [#62, Thiazolo[5,4-c]pyridine-2-carboxylic acid(1(S)-phenyl-ethyl)amide]",,,,,,,,,,,,,,,,,,,,,HCMV IC50 (HCMV): ˜1 μg/ml
"C[C@@H](NC(=O)c1ccc2cncc(Br)c2n1)c1ccccc1 [#66, 8-Bromo-[1,6]naphthyridine-2-carboxylic acid (1-phenyl-ethyl)-amide]",8,56,5,18,3,24,10,27.3,2.2,18,83,,,,,,,,,,"CC50 [2]: 20 µg/mL; IC50 ([3]; human respiratory syncytial virus, read-out: RSV IC50): 4 µg/mL; IC50 (Rhinovirus (RV)): 0.3 µg/mL; IC50 (HSV-1; Human alphaherpesvirus 1, read-out: HSV-1 IC50): 1 µg/mL; IC50 (Adenovirus; unidentified adenovirus, read-out: ADENOVIRUS IC50): 9 µg/mL; IC50 (HIVROJO): 1.4 µg/mL"
"O=C(NCCc1ccccc1)C1=Cc2ccncc2CC1 [#67, 7,8-Dihydro-isoquinoline-6-carboxylic acid phenethyl-amide]",30,> 100,30,> 100,40,> 100,30,74.7,41.2,> 100,100,,,,,,,,,,"CC50 [2]: > 100 µg/mL; IC50 [3, 20]: > 100 µg/mL; IC50 (Rhinovirus (RV); Rhinovirus): > 20 µg/mL; IC50 (HSV-1; [21]): 16 µg/mL; IC50 (HSV-2; Human alphaherpesvirus 2): 86 µg/mL; IC50 (Adenovirus; [22]): > 100 µg/mL; CC50 [18]: > 100 µg/mL; IC50 (HIVROJO; HIVROJO, PBMCs): 8.6 µg/mL"
"CCCOc1ccccc1CNC(=O)c1ccc2cnccc2n1 [#26, N-(2-propoxybenzyl)-2-[1,6]naphthyridine-2-carboxamide]",,,,,,,,,,,,4,< 0.01,5.6,0.36,3,5.6,4,3.2,6.0,"HSV-2 CC50 (uninfected cells [11]): 1.9 µg/mL; INFLUENZA B CC50 (uninfected cells [13]): 5.6 µg/mL; HSV-2 IC50 (HSV-2): 0.19 µg/mL; HIVTEKI (PBMCs) IC50 (HIVTEKI): 0.3 µg/mL; ADENOVIRUS IC50 (Adenovirus; Adenovirus): 4 µg/mL; INFLUENZA B IC50 (Influenza B): 3.2 µg/mL; PARAINFLUENZA IC50 (Parainfluenza): 4 µg/mL; PARAINFLUENZA CC50 (uninfected cells [19]): 2 µg/mL; HIVROJO (PBMCs) IC50 (HIVROJO; HIVROJO, PBMCs): 4.1 µg/mL"
"CC(C)Oc1ccccc1NC(=O)Nc1ccc2cnccc2n1 [#46, 1-(2-iso-propoxy-phenyl)-3-[1,6]naphthyridin-2-yl-urea;]",,,,,,,,,,,,>30,1,>32,>100,30,19,> 30,>100,>100,"ADENOVIRUS CC50 (uninfected cells [10]): > 30 µg/mL; INFLUENZA B CC50 (uninfected cells [13]): > 22 µg/mL; HIVTEKI (PBMCs) CC50 (PBMCs): >100 µg/mL; HIVTEKI (PBMCs) IC50 (HIVTEKI): 4.3 µg/mL; ADENOVIRUS IC50 (Adenovirus; Adenovirus): > 30 µg/mL; INFLUENZA B IC50 (Influenza B): > 32 µg/mL; PARAINFLUENZA IC50 (Parainfluenza): > 30 µg/mL; PARAINFLUENZA CC50 (uninfected cells [19]): 30 µg/mL; HIVROJO (PBMCs) IC50 (HIVROJO; HIVROJO, PBMCs): 3.2 µg/mL"
"COc1ccccc1CNC(=O)C1=Cc2ccncc2CC1 [#32, 7,8-dihydroisoquinolin-6-carboxylic acid 2′-methoxybenzylamide]",,,,,,,,,,,,50,10,60,5.5,30,67,25,14,>64,"ADENOVIRUS CC50 (uninfected cells [10]): 80 µg/mL; HSV-2 CC50 (uninfected cells [11]): 29.0 µg/mL; HSV-2 IC50 (HSV-2): 15 µg/mL; HIVTEKI (PBMCs) CC50 (PBMCs): >64 µg/mL; ADENOVIRUS IC50 (Adenovirus; Adenovirus): > 100 µg/mL; INFLUENZA B IC50 (Influenza B): 56 µg/mL; PARAINFLUENZA CC50 (uninfected cells [19]): 20 µg/mL; HIVROJO (PBMCs) IC50 (HIVROJO; HIVROJO, PBMCs): 45 µg/mL"

# From US6534520B2, “Antiviral compounds” (priority 1997, dated 2003)
